From US12121565B2, “Methods of treatment of specific cancers with NLRP3 inhibitors and anti-PD1/PD-L1 antibodies” (Duke University, priority 2019, dated 2024)

Tested on: syngeneic BRAFV600E PTEN−/− melanomas
Assay: Syngeneic transplant tumor study: tumor growth, flow cytometry, Western blot, ELISA, qRT-PCR
Type: in vivo, mouse
Protocol: B6.Cg-Braf^tm1MmcmPten^tm1Hwu Tg(Tyr-cre/ERT2 H-2^b)13Bos/BosJ transgenic mice were subdermally injected with 4-Hydroxytomoxifen (4-HT) (Sigma, H6278-50MG CCF, 38.75 μg/mouse) to induce primary melanoma development at the base of the tail. Mice were randomly assigned to treatment cohorts once tumor volumes reached 64 mm^3 (19, 30, 50). Depending on the experiment, mice were treated with the following agents: CXCR2 inhibitor (AZD5069, AstraZeneca) at 100 mg/kg per os (po) twice daily, NLRP3 inhibitor (MCC950) 10 mg/kg i.p every other day, anti-PD1 ab (BioXCell) or rat IgG2a isotype control (BioXCell) at 200 μg by i.p. injection every 3 days, Dacarbazine (50 mg/kg or 75 mg/kg, Sigma-Aldrich, D2390) by i.p. injection once every other day. Melanoma growth was monitored by orthogonal caliper measurements every 3 days.
Braf^V600EPten^−/−, Braf^V600EPten^−/−-NTC, Braf^V600EPten^−/−-Wnt5a^KD, Braf^V600EPten^−/−-CXCL5^KD, Braf^V600EPten^−/−-PDL1^KD, and Braf^V600EPten^−/−-NLRP3^KD cell lines (0.5×10^5-1×10^5 cells) were implanted by subcutaneous injection into the base of the tail of syngeneic C57BL/6 mice. Tumor growth was monitored by caliper measurement every 3 days and treatment was initiated when tumor volumes reached 64 mm^3. Tumor volume was calculated according to the formula: cm^3=[(length (cm)×(width (cm))^2]/2.
One million cells were stained with 1 μg per million cells of each fluorochrome conjugated antibodies or commercially available dyes according to the standard protocols and analyzed using a FACSCanto II or LSRII (Becton Dickinson). Cells were stained with Fc receptor blocking antibodies followed by a live/dead discriminator (CellTrace Violet, ThermoFisher, C34571), then by conjugated antibodies for 30 min at 4° C. Cell number was calculated by hemocytometer. Flow cytometry data was analyzed using Flowjo software v10.3.
Tumor tissue or cells were homogenized in NP40 lysis buffer (Sigma-Aldrich) supplemented with complete protease inhibitor and phosphatase inhibitor (Roche). Cells were lysed in Laemmli sample buffer after treatment and subjected to SDS-polyacrylamide gel electrophoresis. After transferring onto PVDF membranes (Bio-Rad), monoclonal and polyclonal primary antibodies and appropriate HRP-conjugated secondary antibodies were utilized for blotting. For the immunoprecipitation assays, cells were lysed with TBS buffer (50 mM Tris-HCl (pH 7.4), 150 mM NaCl) containing 0.5% Triton X-100, EDTA-free protease inhibitor cocktail and phosphatase inhibitor cocktail, precleared with protein A/G beads, and then incubated with 1 μg of appropriate antibodies or isotype control IgG on a rotator overnight at 4° C. then incubated with protein A/G-agarose at 4° C. for 1 hour. After 5 washes with TBS buffer, immunoprecipitated complexes were eluted in sample buffer by boiling and subjected to immunoblot analysis. Immunoblots were visualized by chemiluminescence substrate (ThermoFisher) and imaged by a ChemiDoc XRSplus system (BioRad). For the ASC polymerization assay, cells were lysed with TBS buffer containing 0.5% Triton X-100, EDTA-free protease inhibitor cocktail and phosphatase inhibitor cocktail. The lysates were centrifuged at 4,000 g at 4° C. for 15 min. For the detection of ASC oligomerization, the Triton-insoluble pellets were washed twice with TBS buffer and then resuspended in 500 μl TBS buffer. The resuspended pellets were crosslinked for 30 min at room temperature with 2 mM Disuccinimidyl suberate (DSS) (Thermo Fisher Scientific, 21655) and then centrifuged for 15 min at 6,000 g. The pellets were dissolved in SDS sample buffer.
Total RNA was isolated by RNeasy Plus Mini Kit (Qiagen, 74134). RNA (1000 ng) was used in cDNA Synthesis (iScript Reverse Transcription Supermix, BioRad, 1708841). Data analysis utilized the PrimePCR Analysis Software (BioRad). […]

[1] = combined anti-PD-1 Ab and NLRP3 inhibitor

## CC(C)(O)c1coc(S(=O)(=O)NC(=O)Nc2c3c(cc4c2CCC4)CCC3)c1 [MCC950, N-[[(1,2,3,5,6,7-hexahydro-s-indacen-4-yl)amino]carbonyl]-4-(1-hydroxy-1-methylethyl)-2-furansulfonamide]
NLRP3 inhibition combined with anti-PD-1 Ab (200 μg i.p. every 3 days)
  PMN-MDSC recruitment in response to anti-PD-1 Ab therapy: diminished
NLRP3 inhibitor MCC950 combined with anti-PD-1 Ab
  levels of tumor-infiltrating CD8+ T cells: enhanced
NLRP3 inhibitor MCC950 combined with anti-PD-1 Ab, beyond what was observed with anti-PD-1 Ab monotherapy
  tumor progression in vivo: suppressed
Combined anti-PD-1 Ab and NLRP3 inhibition
  HSP70 release (plasma ELISA): suppressed
[1]
  Cxcl5 levels (tumor qRT-PCR): suppressed
  Wnt5a expression (whole-tissue Western blot): suppressed
  caspase-1 cleavage (whole-tissue Western blot): suppressed
  expression of the cytolytic T cell marker Gzmb (tumor qRT-PCR): enhanced
